# Reference: patent publication US10662146B2, “Prodrugs of fencamfamine” (Praxis Bioresearch, LLC, priority 2015, dated 2020)
# Several values for one entry are separate records, joined by “and”; a condition that tells them apart may be missing. Identical values can stand only once. Like-named read-outs stand apart in the source and are kept apart here.
# Experiment: Single dose intravenous PK study in male Sprague Dawley rats (plasma by LC-MS/MS)
# Format: in vivo
# Conditions: for Cmax / AUC / Tmax / AUC(0-inf) / AUC(0-t) / clearance / MRT last / half-life / Vd / C0: male, rat; for Cmax / AUC(0-inf) / AUC(0-t) / clearance / MRT last / half-life / Vd / C0: iv; for AUC: read-out: IV PK Parameters AUC, Prodrug; for C0: read-out: C0 of PRX-P5-006
# Protocol: We describe here PK results of prodrugs of PRX-002 (−) or (+) isomers. All doses of prodrugs were administered such that they were equivalent to 5 mg/kg of PRX-002 (−) or (+) for oral studies and 2 mg/kg PRX-002 (−) or (+) for intravenous studies in male Sprague-Dawley (MSD) rats. Higher doses of up to 10 or 15 mg/kg [again equivalent to PRX-002 (−)] were used in some studies (as specified)]. Formulation preparation, dose administration and time of sample collection was as follows.
# (§1) Adult male Sprague Dawley Rats aged 8-10 weeks were used for the study. Animals were administered the test item by Intravenous bolus route with a dose of 2 mg/kg body weight at dose volume of 5.0 mL/kg body weight. Under mild isoflurane anesthesia, blood specimens were collected by retro-orbital puncture method using capillary tubes into pre-labeled tubes containing anticoagulant (K2EDTA-2 mg/mL blood) during the next 24 hours of post dose as mentioned in below table. For blood sampling at multiple time points, right and left eyes were used alternatively for blood collection. Collected blood specimens were centrifuged at 4000 rpm, 4° C. for 10 minutes and plasma were separated and stored at −80° C. until analysis.
# Blood was collected as outlined in Table 39.2 (IV).
# Test item PRX-P4-003 was weighed and transferred to a graduated tube. Then 600 μL of PEG 400 (v/v) was added and vortex mixed thoroughly until the test item was completely dissolved. Then 1.800 mL of Hydroxypropyl-β-cyclodextrin (HPβCD, 50% w/v) was added and vortex mixed thoroughly. The final volume was then made up to 3.600 mL with sterile water for injection (SWFI, v/v) with final formulation strength of 5.16 mgA/mL. […] This formulation was freshly prepared before the administration to animals.
# as §1, with “administered with a PRX-P4-003” for “administered the test item”, “of 10” for “of 2”, “of 5” for “of 5.0”
# Test item PRX-P5-006 was weighed and transferred to a graduated tube. Then 500 μL of DMSO (v/v) was added vortex mixed thoroughly until the test item was completely dissolved. Then 4000 μL of Hydroxypropyl-β-cyclodextrin (HPβCD, 50% w/v) was added and vortex mixed thoroughly. Then 2500 μL of PEG 400 (v/v) was added and vortex mixed thoroughly. The final volume was then made up to 10000 μL with sterile water for injection (SWFI, v/v) with final formulation strength of 3.97 mg/mL. […] This formulation was freshly prepared before the administration to animals.
# as §1, with “administered with a PRX-P5-006” for “administered the test item”, “of 15” for “of 2”, “of 10” for “of 5.0”
# The plasma concentrations of fencamfamine were measured by LC-MS/MS over time. […] The release of fencamfamine from the prodrugs varied depending on the chain length of the fatty acid linkers attached to fencamfamine. […]
# [1] = Sprague Dawley, plasma, 2 mg/kg, IV 2 mg/kg [equivalent to PRX-002 (−)], analyte: prodrug in plasma, mean, read-out: IV PK Parameters Cmax, Prodrug
# [2] = Sprague Dawley, IV 2 mg/kg [equivalent to PRX-002 (−)], analyte: prodrug in plasma, mean
# [3] = Sprague Dawley, IV 2 mg/kg [equivalent to PRX-002 (−)], analyte: prodrug in plasma, mean, read-out: IV PK Parameters Tmax, Prodrug
# [4] = PRX-P5-006 IV 2 mg/kg b.w., individual animals, 2 mg/kg
# [5] = PRX-P5-006 IV 2 mg/kg, mean, 2 mg/kg
smiles,measurement,setting,value
"CCCCCCCCCCCCCCCCCC(=O)OCOC(=O)N(CC)C1C2CCC(C2)C1c1ccccc1 (single isomer, unassigned) [PRX-P4-003, N-(Octadecanoyloxymethoxycarbonyl)-(−)-N-ethyl-3-phenylbicyclo[2.2.1]heptan-2-amine]",Plasma concentration of PRX-P4-003,"PRX-P4-003 IV 2 mg/kg b.w., 0.08 h, mean",171.96
same,Plasma concentration of PRX-P4-003,"PRX-P4-003 IV 2 mg/kg b.w., 0.25 h, mean",47.94
same,Plasma concentration of PRX-P4-003,"PRX-P4-003 IV 2 mg/kg b.w., 0.50 h, mean",26.73
same,Plasma concentration of PRX-P4-003,"PRX-P4-003 IV 2 mg/kg b.w., 1.00 h, mean",20.03
same,Plasma concentration of PRX-P4-003,"PRX-P4-003 IV 2 mg/kg b.w., 2.00 h, mean",18.29
same,Plasma concentration of PRX-P4-003,"PRX-P4-003 IV 2 mg/kg b.w., 4.00 h, mean",14.23
same,Plasma concentration of PRX-P4-003,"PRX-P4-003 IV 2 mg/kg b.w., 6.00 h, mean",10.72
same,Plasma concentration of PRX-P4-003,"PRX-P4-003 IV 2 mg/kg b.w., 24.00 h, mean",0.00
same,AUC% extrap of PRX-P4-003,"PRX-P4-003 IV 2 mg/kg, mean",32.475 ± 83.3890%
same,Plasma concentration of PRX-P4-003,"PRX-P4-003 IV 10 mg/kg b.w., 0.08 h, mean",199.64
same,Plasma concentration of PRX-P4-003,"PRX-P4-003 IV 10 mg/kg b.w., 0.25 h, mean",27.98
same,Plasma concentration of PRX-P4-003,"PRX-P4-003 IV 10 mg/kg b.w., 0.50 h, mean",8.96
same,Plasma concentration of PRX-P4-003,"PRX-P4-003 IV 10 mg/kg b.w., 1.00 h, mean",0.00
same,Plasma concentration of PRX-P4-003,"PRX-P4-003 IV 10 mg/kg b.w., 2.00 h, mean",0.00
same,Plasma concentration of PRX-P4-003,"PRX-P4-003 IV 10 mg/kg b.w., 4.00 h, mean",0.00
same,Plasma concentration of PRX-P4-003,"PRX-P4-003 IV 10 mg/kg b.w., 6.00 h, mean",0.00
same,Plasma concentration of PRX-P4-003,"PRX-P4-003 IV 10 mg/kg b.w., 24.00 h, mean",0.00
same,Conversion of pro-drug form to active form PRX-002(−) isomer in plasma,PRX-P4-003 IV administration (FIG. 2),minimal amounts
same,Amount of parent PRX-002 (−) generated,"PRX-P4-003 IV, even at higher dose of 10 mg/kg (FIG. 3)",very limited amount
same,Cmax,[1],172 ± 62.6 ng/mL
same,AUC,[2],133 ± 32.5 ng·h/mL
same,Tmax,[3],4.8 min
same,AUC(0-inf),"Sprague-Dawley, plasma, 2 mg/kg, PRX-P4-003 IV 2 mg/kg, mean, read-out: AUCinf of PRX-P4-003",216 ± 83.4 ng·h/mL
same,AUC(0-t),"Sprague-Dawley, plasma, 2 mg/kg, PRX-P4-003 IV 2 mg/kg, mean, read-out: AUClast of PRX-P4-003",133 ± 32.5 ng·h/mL
same,clearance,"Sprague-Dawley, plasma, 2 mg/kg, PRX-P4-003 IV 2 mg/kg, mean, read-out: CL of PRX-P4-003",172 ± 69.3 mL/min/kg
same,Cmax,"Sprague-Dawley, plasma, 2 mg/kg, PRX-P4-003 IV 2 mg/kg, mean, read-out: Cmax of PRX-P4-003",172 ± 62.6 ng/mL
same,MRT last,"Sprague-Dawley, plasma, 2 mg/kg, PRX-P4-003 IV 2 mg/kg, mean, read-out: MRTlast of PRX-P4-003",1.84 ± 0.713 h
same,half-life,"Sprague-Dawley, plasma, 2 mg/kg, PRX-P4-003 IV 2 mg/kg, mean, read-out: T1/2 of PRX-P4-003 (converted)",3.35 ± 2.18 h
same,Vd,"Sprague-Dawley, plasma, 2 mg/kg, PRX-P4-003 IV 2 mg/kg, mean, read-out: Vss of PRX-P4-003",42 ± 19.9 L/kg
same,Tmax,"Sprague-Dawley, plasma, PRX-P4-003 IV 2 mg/kg, mean, read-out: Tmax of PRX-P4-003",4.8 min
"CCCCCCCCCCCCCCCCCC(=O)OC(C)OC(=O)N(CC)C1C2CCC(C2)C1c1ccccc1 (single isomer, unassigned) [PRX-P5-006, N-(1-Octadecanoyloxyethoxycarbonyl)-(−)-N-ethyl-3-phenylbicyclo[2.2.1]heptan-2-amine]",AUC% extrap of PRX-P5-006,[4],5.16% and 3.49% and 11.16%
same,AUCinf of PRX-P5-006,[4],3977.39 ng·h/mL and 4119.23 ng·h/mL
same,AUClast of PRX-P5-006,[4],3838.58 ng·h/mL and 3659.58 ng·h/mL
same,C0 of PRX-P5-006,[4],32467.12 ng/mL and 21202.31 ng/mL
same,CL of PRX-P5-006,[4],8.38 mL/min/kg and 8.09 mL/min/kg
same,Cmax of PRX-P5-006,[4],8662.3 ng/mL and 7404.71 ng/mL
same,MRTlast of PRX-P5-006,[4],2.7 h and 0.93 h and 3.31 h
same,T1/2 of PRX-P5-006,[4],7.54 h and 2.06 h and 9.32 h
same,Vss of PRX-P5-006,[4],1.56 L/kg and 0.61 L/kg and 3.46 L/kg
same,AUC% extrap of PRX-P5-006,[5],6.602 ± 4.0330% and 6.602%
same,T1/2 of PRX-P5-006,[5],6.304 h
same,"Level of intact PRX-P5-006 in plasma, IV versus oral","PRX-P5-006 administered IV (FIGS. 5A, 5B)",Much higher level of intact PRX-P5-006
same,Cmax,[1],707 ± 500 ng/mL
same,AUC(0-inf),"Sprague Dawley, plasma, 2 mg/kg, PRX-P5-006 IV 2 mg/kg, mean, read-out: AUCinf of PRX-P5-006",4560 ± 894 ng·h/mL
same,AUC(0-t),"Sprague Dawley, plasma, 2 mg/kg, PRX-P5-006 IV 2 mg/kg, mean, read-out: AUClast of PRX-P5-006",4270 ± 902 ng·h/mL
same,clearance,"Sprague Dawley, plasma, 2 mg/kg, PRX-P5-006 IV 2 mg/kg, mean, read-out: CL of PRX-P5-006",7.48 ± 1.32 mL/min/kg
same,Vd,"Sprague Dawley, plasma, 2 mg/kg, PRX-P5-006 IV 2 mg/kg, mean, read-out: Vss of PRX-P5-006",1.88 ± 1.45 L/kg
same,Cmax,"Sprague Dawley, plasma, 15 mg/kg, IV 15 mg/kg (footnote *), analyte: prodrug in plasma, mean, read-out: IV PK Parameters Cmax, Prodrug",16400 ± 7100 ng/mL
same,AUC,[2],410 ± 301 ng·h/mL
same,Tmax,[3],4.8 min
same,AUC,"Sprague Dawley, IV 15 mg/kg (footnote *), analyte: prodrug in plasma, mean",8060 ± 1760 ng·h/mL
same,Tmax,"Sprague Dawley, IV 15 mg/kg (footnote *), analyte: prodrug in plasma, mean, read-out: IV PK Parameters Tmax, Prodrug",4.8 min
same,AUC(0-inf),"Sprague-Dawley, plasma, 2 mg/kg, PRX-P5-006 IV 2 mg/kg b.w., individual animals, read-out: AUCinf of PRX-P5-006",5590 ng·h/mL
same,AUC(0-t),"Sprague-Dawley, plasma, 2 mg/kg, PRX-P5-006 IV 2 mg/kg b.w., individual animals, read-out: AUClast of PRX-P5-006",5300 ng·h/mL
same,C0,"Sprague-Dawley, plasma, 2 mg/kg, PRX-P5-006 IV 2 mg/kg b.w., individual animals",36200 ng/mL
same,clearance,"Sprague-Dawley, plasma, 2 mg/kg, PRX-P5-006 IV 2 mg/kg b.w., individual animals, read-out: CL of PRX-P5-006",5.96 mL/min/kg
same,Cmax,"Sprague-Dawley, plasma, 2 mg/kg, PRX-P5-006 IV 2 mg/kg b.w., individual animals, read-out: Cmax of PRX-P5-006",11200 ng/mL
same,C0,"Sprague-Dawley, plasma, 2 mg/kg, PRX-P5-006 IV 2 mg/kg, mean",30000 ng/mL
same,Cmax,"Sprague-Dawley, plasma, 2 mg/kg, PRX-P5-006 IV 2 mg/kg, mean, read-out: Cmax of PRX-P5-006",9100 ± 1950 ng/mL
same,MRT last,"Sprague-Dawley, plasma, 2 mg/kg, PRX-P5-006 IV 2 mg/kg, mean, read-out: MRTlast of PRX-P5-006",2.31 ± 1.24 h
same,half-life,"Sprague-Dawley, plasma, 2 mg/kg, PRX-P5-006 IV 2 mg/kg, mean, read-out: T1/2 of PRX-P5-006 (converted)",6.3 ± 3.79 h
same,Tmax,"Sprague-Dawley, plasma, PRX-P5-006 IV 2 mg/kg, mean, read-out: Tmax of PRX-P5-006",4.8 min
